From ChEMBL document CHEMBL1201862, “PubChem BioAssay data set” (2004)
Active and inactive are the calls of the source.

How the values were obtained:
[1] = Luminescence Cell-Based Dose Retest to Confirm Inhibitors of Cancer Stem Cells. [Related pubchem assays (depositor defined):AID2717, AID2721]; assay type: functional; details: Homo sapiens
[2] = molecular target: T1, Ubiquitin-conjugating enzyme E2 N (Homo sapiens, UniProt P61088); assay type: functional;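 further: Dose-response confirmation in a TR-FRET assay detecting UBC13-driven polyubiquitin chain formation, inhibition measured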
T1 sequence (P61088 whole entry): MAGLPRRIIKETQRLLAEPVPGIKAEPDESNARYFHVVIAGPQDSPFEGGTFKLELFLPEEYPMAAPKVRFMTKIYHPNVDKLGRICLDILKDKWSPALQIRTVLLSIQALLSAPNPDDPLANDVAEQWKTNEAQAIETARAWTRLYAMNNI

[3] = molecular target: T2, Microphthalmia-associated transcription factor (Homo sapiens, UniProt O75030); test: reducers of TRPM1 reporter luminescence, concentration series – cell-based, SK-MEL-5, cherry-picked, set 3, MITF inhibitor project, dose response (AID 493073); assay type: functional;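 further: SK-MEL-5 melanoma cells with luciferase driven by the MITF target TRPM1 promoter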
T2 sequence (O75030 whole entry): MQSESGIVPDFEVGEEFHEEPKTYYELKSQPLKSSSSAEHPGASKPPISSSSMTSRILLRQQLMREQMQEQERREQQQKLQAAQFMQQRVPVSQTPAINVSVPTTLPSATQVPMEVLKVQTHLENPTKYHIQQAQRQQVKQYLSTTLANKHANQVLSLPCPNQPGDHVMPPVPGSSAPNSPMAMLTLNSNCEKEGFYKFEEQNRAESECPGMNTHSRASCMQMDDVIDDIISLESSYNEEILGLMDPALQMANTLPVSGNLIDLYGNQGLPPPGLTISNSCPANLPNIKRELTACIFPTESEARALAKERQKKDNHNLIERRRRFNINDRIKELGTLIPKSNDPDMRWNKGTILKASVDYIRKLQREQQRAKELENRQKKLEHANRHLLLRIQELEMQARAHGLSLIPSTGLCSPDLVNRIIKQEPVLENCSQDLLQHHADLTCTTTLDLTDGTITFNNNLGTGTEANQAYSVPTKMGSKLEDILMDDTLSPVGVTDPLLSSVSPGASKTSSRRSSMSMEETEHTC

[4] = test system: INS1; test: INS-1E survival protection against cytokine death – cell-based, luminescence, retest, dose response (AID 449756); assay type: functional; details: Rattus norvegicus;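 further: cell death triggered by IL-1 beta plus TNF-alpha plus IFN-gamma mixture; protective hits raise ATP signal compared with cytokine alone wells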
[5] = test system: A-375; test: proliferation inhibition in MITF-low A375 cells – cell-based, cherry-pick samples, set 2, counter-screen for MITF modulator project, dose response (AID 540335); assay type: functional; details: Homo sapiens
[6] = molecular target: Cytochrome P450 2C19 (Homo sapiens, UniProt P33261); test: Cytochrome panel assay with activity outcomes. Panel member name: p450-cyp2c19 Compounds with AC50 equal or less than 10 uM are considered active; assay type: functional; details: read-out: AC50
Chain of Cytochrome P450 2C19 (P33261 whole entry): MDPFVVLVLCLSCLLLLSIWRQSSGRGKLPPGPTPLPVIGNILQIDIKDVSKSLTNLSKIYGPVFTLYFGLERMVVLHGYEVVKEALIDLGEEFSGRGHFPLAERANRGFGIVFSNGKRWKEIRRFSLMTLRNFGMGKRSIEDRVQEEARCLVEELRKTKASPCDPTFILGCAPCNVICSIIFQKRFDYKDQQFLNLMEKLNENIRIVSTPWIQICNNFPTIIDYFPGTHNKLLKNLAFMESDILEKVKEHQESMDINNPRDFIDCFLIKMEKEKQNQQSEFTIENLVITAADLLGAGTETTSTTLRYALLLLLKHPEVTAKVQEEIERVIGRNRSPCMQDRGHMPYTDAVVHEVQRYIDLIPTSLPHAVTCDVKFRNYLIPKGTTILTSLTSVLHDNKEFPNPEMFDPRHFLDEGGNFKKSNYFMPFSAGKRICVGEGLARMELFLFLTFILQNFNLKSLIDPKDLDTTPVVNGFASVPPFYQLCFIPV

[7] = molecular target: Cytochrome P450 2C9 (Homo sapiens, UniProt P11712)
[8] = molecular target: Cytochrome P450 3A4 (Homo sapiens, UniProt P08684);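 further: CYP3A4 tested as one member of a cytochrome P450 panel screen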
Chain of Cytochrome P450 3A4 (P08684 whole entry, the tested form may be a part): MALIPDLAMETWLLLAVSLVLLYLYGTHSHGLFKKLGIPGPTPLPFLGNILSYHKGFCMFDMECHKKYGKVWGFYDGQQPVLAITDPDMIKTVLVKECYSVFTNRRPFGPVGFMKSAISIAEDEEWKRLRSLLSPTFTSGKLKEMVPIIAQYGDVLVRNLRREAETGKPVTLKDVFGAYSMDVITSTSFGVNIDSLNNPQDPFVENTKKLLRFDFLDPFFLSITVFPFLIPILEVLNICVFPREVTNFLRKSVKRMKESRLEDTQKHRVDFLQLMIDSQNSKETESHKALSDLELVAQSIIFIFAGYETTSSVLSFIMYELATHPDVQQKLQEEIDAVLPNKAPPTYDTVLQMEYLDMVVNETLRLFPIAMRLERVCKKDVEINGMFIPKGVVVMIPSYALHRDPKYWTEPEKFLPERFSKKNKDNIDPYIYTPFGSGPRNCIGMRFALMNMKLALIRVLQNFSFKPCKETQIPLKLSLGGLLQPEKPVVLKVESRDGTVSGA

[9] = molecular target: T3, RNA-binding protein pos-1 (Caenorhabditis elegans, UniProt G5EF15); test: disruptors of C. elegans POS-1 RNA interaction – biochemical, fluorescence polarization, dose response (AID 1964);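 further: purified POS-1 fused to maltose binding protein made in E. coli; potency of compounds blocking POS-1 binding to fluorescent RNA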
T3 sequence (G5EF15 whole entry): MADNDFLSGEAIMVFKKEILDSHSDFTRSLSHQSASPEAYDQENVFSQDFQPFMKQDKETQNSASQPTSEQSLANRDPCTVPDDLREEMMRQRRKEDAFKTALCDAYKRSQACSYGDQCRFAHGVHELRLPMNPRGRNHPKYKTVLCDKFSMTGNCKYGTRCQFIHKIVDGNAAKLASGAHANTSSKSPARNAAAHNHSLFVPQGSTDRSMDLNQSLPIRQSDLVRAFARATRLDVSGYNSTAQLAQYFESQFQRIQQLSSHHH

[10] = molecular target: Peroxisome proliferator-activated receptor gamma/Nuclear receptor coactivator 1 (Homo sapiens, UniProt P37231); test: TR-FRET dose response biochemical High Throughput Screening assay for agonists of the steroid receptor coactivator 1 (SRC-1) recruitment by the peroxisome proliferator-activated receptor gamma (PPAR gamma): non-selective agonists. [Related pubchem assays (depositor defined):AID1300, AID1808, AID504735, AID631]; assay type: protein assay
[11] = molecular target: Peroxisome proliferator-activated receptor gamma/Nuclear receptor coactivator 3 (Homo sapiens, UniProt P37231); test: TR-FRET dose response biochemical High Throughput Screening assay for agonists of the steroid receptor coactivator 3 (SRC-3) recruitment by the peroxisome proliferator-activated receptor gamma (PPAR gamma): non-selective agonists. [Related pubchem assays: 1301 (Confirmation screen.), 1048 (Primary screen.)]; assay type: functional
Chain of Peroxisome proliferator-activated receptor gamma/Nuclear receptor coactivator 3 (P37231 whole entry): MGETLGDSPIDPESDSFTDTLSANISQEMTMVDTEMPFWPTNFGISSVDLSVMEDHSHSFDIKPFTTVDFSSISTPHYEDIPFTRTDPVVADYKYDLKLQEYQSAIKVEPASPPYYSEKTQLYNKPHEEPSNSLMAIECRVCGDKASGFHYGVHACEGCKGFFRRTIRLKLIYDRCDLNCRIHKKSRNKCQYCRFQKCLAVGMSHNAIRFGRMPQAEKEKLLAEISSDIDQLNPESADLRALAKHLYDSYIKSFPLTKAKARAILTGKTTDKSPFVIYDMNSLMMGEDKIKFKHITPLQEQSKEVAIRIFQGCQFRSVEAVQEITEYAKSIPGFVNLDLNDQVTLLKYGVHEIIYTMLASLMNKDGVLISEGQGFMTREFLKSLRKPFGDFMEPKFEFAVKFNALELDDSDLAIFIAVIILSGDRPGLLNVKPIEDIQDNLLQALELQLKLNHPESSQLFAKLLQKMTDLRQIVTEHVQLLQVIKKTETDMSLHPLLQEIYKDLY
Chain of Peroxisome proliferator-activated receptor gamma/Nuclear receptor coactivator 3 (Q9Y6Q9 whole entry, further chain): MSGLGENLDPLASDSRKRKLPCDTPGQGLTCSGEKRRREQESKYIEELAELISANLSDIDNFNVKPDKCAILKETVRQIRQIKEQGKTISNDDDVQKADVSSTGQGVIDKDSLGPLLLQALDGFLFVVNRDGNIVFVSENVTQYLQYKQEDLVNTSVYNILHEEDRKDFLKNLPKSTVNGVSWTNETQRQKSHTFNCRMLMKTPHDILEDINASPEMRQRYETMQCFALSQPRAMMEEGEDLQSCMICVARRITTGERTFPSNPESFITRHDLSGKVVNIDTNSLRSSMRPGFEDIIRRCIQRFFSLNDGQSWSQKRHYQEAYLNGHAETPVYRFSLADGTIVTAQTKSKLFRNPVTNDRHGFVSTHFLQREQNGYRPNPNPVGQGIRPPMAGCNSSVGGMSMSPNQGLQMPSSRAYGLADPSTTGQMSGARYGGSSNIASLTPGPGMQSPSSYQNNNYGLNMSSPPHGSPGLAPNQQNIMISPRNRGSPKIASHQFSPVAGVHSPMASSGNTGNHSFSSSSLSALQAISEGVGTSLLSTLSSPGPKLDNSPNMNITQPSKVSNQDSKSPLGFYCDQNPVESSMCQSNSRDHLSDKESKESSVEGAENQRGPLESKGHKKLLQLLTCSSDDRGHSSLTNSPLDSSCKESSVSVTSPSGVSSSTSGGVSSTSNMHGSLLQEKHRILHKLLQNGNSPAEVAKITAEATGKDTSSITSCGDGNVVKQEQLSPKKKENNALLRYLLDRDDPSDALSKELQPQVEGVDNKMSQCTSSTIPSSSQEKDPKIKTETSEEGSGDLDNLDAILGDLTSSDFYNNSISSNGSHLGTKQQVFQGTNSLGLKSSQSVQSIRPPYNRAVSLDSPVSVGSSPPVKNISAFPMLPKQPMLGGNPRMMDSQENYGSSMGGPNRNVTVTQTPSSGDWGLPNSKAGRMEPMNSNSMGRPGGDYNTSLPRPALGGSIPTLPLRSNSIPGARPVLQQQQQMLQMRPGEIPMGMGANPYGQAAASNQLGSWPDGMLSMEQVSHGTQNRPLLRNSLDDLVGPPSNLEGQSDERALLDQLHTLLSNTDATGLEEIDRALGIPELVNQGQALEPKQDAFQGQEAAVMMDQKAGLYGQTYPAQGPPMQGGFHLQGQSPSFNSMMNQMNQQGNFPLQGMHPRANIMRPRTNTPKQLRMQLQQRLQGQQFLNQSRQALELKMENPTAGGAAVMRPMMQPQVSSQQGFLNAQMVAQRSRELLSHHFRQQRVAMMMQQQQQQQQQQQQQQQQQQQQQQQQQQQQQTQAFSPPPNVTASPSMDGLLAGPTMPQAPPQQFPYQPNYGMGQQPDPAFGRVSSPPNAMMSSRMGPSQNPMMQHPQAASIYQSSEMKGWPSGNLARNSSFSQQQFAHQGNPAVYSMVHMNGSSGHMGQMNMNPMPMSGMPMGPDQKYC

[12] = molecular target: T4, Zinc finger protein mex-5 (Caenorhabditis elegans, UniProt Q9XUB2); test: potency of MEX-5 RNA-binding blockers – biochemical, C. elegans, fluorescence polarization, dose response (AID 1960)
T4 sequence (Q9XUB2 whole entry): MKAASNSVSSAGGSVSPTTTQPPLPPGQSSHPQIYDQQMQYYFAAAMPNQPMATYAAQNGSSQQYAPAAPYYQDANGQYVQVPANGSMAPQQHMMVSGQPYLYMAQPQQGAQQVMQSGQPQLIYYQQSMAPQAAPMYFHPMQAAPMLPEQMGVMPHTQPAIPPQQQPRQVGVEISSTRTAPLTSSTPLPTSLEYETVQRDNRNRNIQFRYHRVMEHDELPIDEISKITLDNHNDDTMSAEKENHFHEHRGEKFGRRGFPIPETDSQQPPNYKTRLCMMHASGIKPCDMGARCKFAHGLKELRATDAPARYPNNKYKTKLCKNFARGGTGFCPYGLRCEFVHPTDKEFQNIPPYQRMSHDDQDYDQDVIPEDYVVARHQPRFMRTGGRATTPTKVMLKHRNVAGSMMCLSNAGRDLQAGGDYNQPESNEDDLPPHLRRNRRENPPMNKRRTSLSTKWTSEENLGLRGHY

[13] = molecular target: Peroxisome proliferator-activated receptor gamma/Nuclear receptor coactivator 2 (Homo sapiens, UniProt P37231); test: TR-FRET dose response biochemical High Throughput Screening assay for agonists of the steroid receptor coactivator 2 (SRC-2) recruitment by the peroxisome proliferator-activated receptor gamma (PPAR gamma): non-selective agonists. [Related pubchem assays: 1297, 1032 ]; assay type: functional
Chain of Peroxisome proliferator-activated receptor gamma/Nuclear receptor coactivator 2 (P37231 whole entry): as the sequence (P37231 whole entry) above
Chain of Peroxisome proliferator-activated receptor gamma/Nuclear receptor coactivator 2 (Q15596 whole entry, further chain): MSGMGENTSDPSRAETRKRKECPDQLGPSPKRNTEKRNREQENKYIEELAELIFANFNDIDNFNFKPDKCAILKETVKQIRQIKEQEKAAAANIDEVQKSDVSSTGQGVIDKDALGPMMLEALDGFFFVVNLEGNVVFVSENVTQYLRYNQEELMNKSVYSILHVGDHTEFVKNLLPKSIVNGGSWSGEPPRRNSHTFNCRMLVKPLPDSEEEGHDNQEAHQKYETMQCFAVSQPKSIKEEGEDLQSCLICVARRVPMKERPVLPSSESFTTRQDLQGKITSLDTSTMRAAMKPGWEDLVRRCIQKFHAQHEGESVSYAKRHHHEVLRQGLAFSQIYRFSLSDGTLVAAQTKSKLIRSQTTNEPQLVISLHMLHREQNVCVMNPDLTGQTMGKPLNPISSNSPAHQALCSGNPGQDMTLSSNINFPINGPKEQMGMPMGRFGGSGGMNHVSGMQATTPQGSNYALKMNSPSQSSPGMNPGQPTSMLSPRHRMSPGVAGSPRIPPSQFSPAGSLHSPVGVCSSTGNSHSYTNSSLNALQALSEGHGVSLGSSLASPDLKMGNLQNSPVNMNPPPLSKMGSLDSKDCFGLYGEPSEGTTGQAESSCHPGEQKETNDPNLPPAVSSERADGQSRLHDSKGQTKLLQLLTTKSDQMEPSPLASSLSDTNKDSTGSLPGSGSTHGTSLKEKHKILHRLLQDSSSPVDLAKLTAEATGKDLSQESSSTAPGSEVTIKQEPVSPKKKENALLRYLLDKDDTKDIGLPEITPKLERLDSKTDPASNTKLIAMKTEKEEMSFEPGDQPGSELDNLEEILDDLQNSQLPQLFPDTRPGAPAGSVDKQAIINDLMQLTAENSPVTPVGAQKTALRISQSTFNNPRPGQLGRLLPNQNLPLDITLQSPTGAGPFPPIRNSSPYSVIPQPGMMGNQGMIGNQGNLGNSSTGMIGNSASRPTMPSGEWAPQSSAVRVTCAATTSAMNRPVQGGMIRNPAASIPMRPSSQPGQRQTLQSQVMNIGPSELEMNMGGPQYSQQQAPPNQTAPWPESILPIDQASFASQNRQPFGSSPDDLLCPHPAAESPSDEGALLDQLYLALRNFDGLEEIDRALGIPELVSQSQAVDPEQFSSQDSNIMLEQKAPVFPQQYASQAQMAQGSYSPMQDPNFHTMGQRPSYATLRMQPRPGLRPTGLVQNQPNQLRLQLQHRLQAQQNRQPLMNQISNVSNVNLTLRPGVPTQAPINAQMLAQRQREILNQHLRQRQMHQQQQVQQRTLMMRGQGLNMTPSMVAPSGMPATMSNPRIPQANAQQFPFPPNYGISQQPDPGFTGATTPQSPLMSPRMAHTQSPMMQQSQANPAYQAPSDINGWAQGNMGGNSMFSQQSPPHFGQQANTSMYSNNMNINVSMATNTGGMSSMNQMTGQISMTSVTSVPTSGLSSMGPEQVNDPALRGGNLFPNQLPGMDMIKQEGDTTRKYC

[14] = molecular target: T5, Corticotropin-releasing factor receptor 2/Corticotropin-releasing factor-binding protein (Homo sapiens, UniProt P24387+Q13324); test: Dose Response confirmation of uHTS hits for small molecule antagonists of the CRF-binding protein and CRF-R2 receptor complex.; assay type: functional; details: read-out: IC50_Mean
T5 sequence (Q13324 whole entry): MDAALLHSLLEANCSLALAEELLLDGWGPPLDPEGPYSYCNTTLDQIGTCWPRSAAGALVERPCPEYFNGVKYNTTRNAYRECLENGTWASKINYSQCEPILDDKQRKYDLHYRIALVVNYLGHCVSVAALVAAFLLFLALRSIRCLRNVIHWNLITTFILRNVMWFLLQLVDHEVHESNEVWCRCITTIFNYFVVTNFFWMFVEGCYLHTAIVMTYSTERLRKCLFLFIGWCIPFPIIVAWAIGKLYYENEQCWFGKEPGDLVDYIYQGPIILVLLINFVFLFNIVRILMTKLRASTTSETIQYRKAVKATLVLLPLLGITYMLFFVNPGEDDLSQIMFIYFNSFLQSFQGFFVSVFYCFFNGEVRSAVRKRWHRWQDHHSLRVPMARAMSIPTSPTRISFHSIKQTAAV
T5 sequence (P24387 whole entry): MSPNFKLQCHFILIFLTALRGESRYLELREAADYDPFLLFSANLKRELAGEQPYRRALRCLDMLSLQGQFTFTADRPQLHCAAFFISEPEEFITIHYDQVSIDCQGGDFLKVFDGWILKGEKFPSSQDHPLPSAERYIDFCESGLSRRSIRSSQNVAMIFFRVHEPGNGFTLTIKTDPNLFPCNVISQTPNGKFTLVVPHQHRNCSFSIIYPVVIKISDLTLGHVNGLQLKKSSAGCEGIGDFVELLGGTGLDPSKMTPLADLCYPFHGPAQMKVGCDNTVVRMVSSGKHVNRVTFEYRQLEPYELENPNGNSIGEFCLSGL

[15] = molecular target: T5, Corticotropin-releasing factor receptor 2/Corticotropin-releasing factor-binding protein; test: activators of CRF receptor 2 with binding protein – uHTS hits, confirmation (AID 602473); assay type: functional; details: read-out: EC50_Mean
[16] = cells; assay type: functional, cell-based
[17] = molecular target: T6, Nuclear receptor subfamily 0 group B member 1 (Homo sapiens, UniProt P51843); assay type: functional, cell-based;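 further: HEK293T cells transfected with SF-1 and DAX-1 plus StAR promoter luciferase reporter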
T6 sequence (P51843 whole entry): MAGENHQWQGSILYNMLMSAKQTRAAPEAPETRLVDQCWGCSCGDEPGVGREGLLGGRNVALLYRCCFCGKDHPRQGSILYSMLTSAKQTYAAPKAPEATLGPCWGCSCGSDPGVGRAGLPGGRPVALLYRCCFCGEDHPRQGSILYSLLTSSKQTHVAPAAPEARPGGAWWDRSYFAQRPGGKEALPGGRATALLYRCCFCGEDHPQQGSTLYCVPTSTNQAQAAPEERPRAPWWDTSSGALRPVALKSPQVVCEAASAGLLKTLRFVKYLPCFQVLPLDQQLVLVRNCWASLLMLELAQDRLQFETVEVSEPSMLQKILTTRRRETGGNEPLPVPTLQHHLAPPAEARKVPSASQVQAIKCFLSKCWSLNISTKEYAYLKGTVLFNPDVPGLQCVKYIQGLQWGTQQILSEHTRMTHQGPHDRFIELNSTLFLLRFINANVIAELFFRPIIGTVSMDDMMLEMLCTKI

[18] = molecular target: Paired box protein Pax-8 (Homo sapiens, UniProt Q06710); test: PAX8 transcriptional activity inhibition in RMG-I – RMG-I cells, luciferase, cherry-pick, dose response (AID 687027); assay type: functional, cell-based;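 further: luciferase reporter driven by Pax8 target thyroperoxidase promoter measured by SteadyGlo luminescence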
[19] = molecular target: T7, Cytochrome P450 1A2 (Homo sapiens, UniProt P05177);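 further: PubChem cytochrome P450 panel assay, CYP1A2 panel member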
T7 sequence (P05177 whole entry): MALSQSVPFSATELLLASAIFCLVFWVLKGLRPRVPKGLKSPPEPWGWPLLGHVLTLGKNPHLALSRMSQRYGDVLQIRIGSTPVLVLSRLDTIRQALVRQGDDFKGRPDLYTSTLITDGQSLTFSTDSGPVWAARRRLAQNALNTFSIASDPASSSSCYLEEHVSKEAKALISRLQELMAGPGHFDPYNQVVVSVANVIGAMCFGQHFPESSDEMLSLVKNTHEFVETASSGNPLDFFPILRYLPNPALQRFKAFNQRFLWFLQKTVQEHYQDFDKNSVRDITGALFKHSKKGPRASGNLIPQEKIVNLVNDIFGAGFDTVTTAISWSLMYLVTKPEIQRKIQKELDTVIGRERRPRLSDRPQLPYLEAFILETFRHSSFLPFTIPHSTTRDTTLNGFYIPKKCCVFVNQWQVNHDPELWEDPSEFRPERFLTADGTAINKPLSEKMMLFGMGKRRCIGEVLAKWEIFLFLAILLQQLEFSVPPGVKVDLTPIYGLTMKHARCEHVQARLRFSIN

[20] = microbe, parasite or virus in culture; assay type: functional; details: Mycobacterium tuberculosis
[21] = cells; assay type: functional

CCN1CCN(CCCNC(=O)c2ccc3c(c2)NC(=O)/C(=C\c2cccc(C)c2)S3)CC1
AC50 [1]: 4.17 µM (active)
IC50 [2]: > 20 µM (inactive)
AC50 [3]: 9.93 µM (active)
AC50 [4]: 6.5 µM (active)
AC50 [5]: 17.5 µM (active)

CCCC(=O)N1CCN(c2ccc(NC(=O)c3sc4ccccc4c3Cl)cc2)CC1
AC50 [6]: 0.158 µM (inconclusive)
AC50 [7]: 5.01 µM (inconclusive)
AC50 [8]: inconclusive

C=CCOc1ccc(C2C(C(=O)c3ccco3)=C(O)C(=O)N2c2nnc(C)s2)cc1 (stereo not given)
EC50 [9]: > 300 µM (not active)
EC50 [10]: > 79.4 µM (inactive)
EC50 [11]: > 79.4 µM (not active)
EC50 [12]: > 300 µM (not active)
EC50 [13]: > 79.4 µM (not active)
IC50 [14]: > 47.1 µM (inactive)
EC50 [15]: > 53 µM (inactive)

CN1CCN(c2ccc(-c3cccc(NC(=O)COc4ccc(Cl)cc4)c3)nn2)CC1
IC50 [16]: > 67.5 µM (inactive)
IC50 [17]: > 67.5 µM (inactive)

Cc1ccnc(NC(=O)c2cccc(S(=O)(=O)N3CCOCC3)c2)c1
IC50 [16]: > 67.5 µM (inactive)
IC50 [17]: > 67.5 µM (inactive)

CCn1c(/C=C2/C(=O)N(C)c3ccccc32)nc2ccccc2c1=O
AC50 [8]: inconclusive

O=C(OC1CCN(c2ncc(C(F)(F)F)cc2Cl)CC1)c1cccc(C(F)(F)F)c1
AC50 [6]: 8.91 µM (inconclusive)
AC50 [7]: 0.2 µM (inconclusive)
AC50 [8]: inconclusive

CCn1c(=O)cc(SCC(=O)N2CCN(c3ccccn3)CC2)c2ccccc21
EC50 [10]: > 79.4 µM (inactive)
EC50 [11]: > 79.4 µM (not active)
EC50 [13]: > 79.4 µM (not active)

CCc1cc2cc(C(=O)Nc3ccc(F)cc3)sc2s1
EC50 [10]: > 79.4 µM (inactive)
EC50 [11]: > 79.4 µM (not active)
EC50 [13]: 57.1 µM (not active)

CC(=Nc1ccccc1)C1=C(O)C(Cc2ccccc2)NC1=O (stereo not given)
IC50 [16]: > 67.6 µM (inactive)
IC50 [17]: 15.8 µM (inactive)

CC(=O)Nc1ccc(-c2ccnc3c2CC(C(=O)NCc2ccccc2)O3)cc1 (stereo not given)
IC50 [16]: > 67.5 µM (inactive)
IC50 [17]: > 67.5 µM (inactive)
AC50 [18]: 1.5 µM (active)

O=C(c1ccc(F)cc1)C1CCN(CCCCc2ccccc2)CC1
AC50 [19]: 31.6 µM (inconclusive)
AC50 [8]: inconclusive

Cc1cc(/C=N\NC(=O)c2cccs2)c(C)n1-c1ccc2ncccc2c1
CC50 [20]: > 40 µM (active)
IC50 [21]: 34 µM (active)
AC50 [19]: 39.8 µM (inconclusive)
AC50 [8]: inconclusive
